Test results: US5527804A, “4-carbamoyloxy-piperidine-1-carboxylic acid esters: inhibitors or cholesterol absorption” (American Home Products Corporation, priority 1994, dated 1996)
Where two headings read alike, the source gives them in different places.

Tests used:
[1] = system: absorption of 14C-cholesterol; assay: In vivo cholesterol absorption, serum radioactivity after oral [4-14C] cholesterol; parameters: species or system normal rats; conditions: normal rat, 6 hr, vs control
Description: In Vivo Assay: The in vivo cholesterol absorption studies were conducted in normal rats by oral administration of the compound being tested in propylene glycol and olive oil followed by oral administration of [4-^14 C] cholesterol in propylene glycol and olive oil, otherwise following the procedure of Cayen et al., J. Lipid Res. 20, 162 (1979). The serum radioactivity was measured at six hours after dosing. The results of this study are reported in Table I as percent decrease compared to control.

[2] = molecular target: T1, cholesterol esterase (EC 3.1.1.13), CEH (Bos taurus, UniProt P30122); assay: In vitro inhibition of cholesteryl ester formation by cholesterol esterase (CEH); assay type: biochemical
T1 construct: purchased Sigma Company, St. Louis, Mo; C-1892; host or cells: bovine pancreas
T1 sequence (P30122 19-597): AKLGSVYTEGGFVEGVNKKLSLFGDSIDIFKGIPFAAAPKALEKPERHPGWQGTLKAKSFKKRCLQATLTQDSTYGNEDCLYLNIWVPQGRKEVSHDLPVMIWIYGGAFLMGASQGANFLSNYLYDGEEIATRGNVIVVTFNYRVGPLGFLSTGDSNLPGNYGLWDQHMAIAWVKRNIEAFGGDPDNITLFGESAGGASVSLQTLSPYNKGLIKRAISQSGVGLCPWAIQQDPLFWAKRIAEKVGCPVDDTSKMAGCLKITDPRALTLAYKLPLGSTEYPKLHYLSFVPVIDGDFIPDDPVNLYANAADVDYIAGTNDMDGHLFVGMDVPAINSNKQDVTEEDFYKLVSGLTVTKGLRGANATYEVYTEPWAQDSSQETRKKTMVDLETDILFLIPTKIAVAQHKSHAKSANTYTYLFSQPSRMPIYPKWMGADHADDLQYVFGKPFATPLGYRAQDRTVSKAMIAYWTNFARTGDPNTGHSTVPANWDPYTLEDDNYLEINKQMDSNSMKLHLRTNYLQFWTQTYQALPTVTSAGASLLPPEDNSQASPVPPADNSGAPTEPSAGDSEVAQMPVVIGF
Description: In Vitro Assay: The ability of the compounds of this invention to inhibit the formation of cholesteryl esters and thereby interfere with and prevent assimilation of cholesterol into the lymphatic system and ultimately the blood stream was established by incubating the compounds at 37° C. with a mixture of cholesterol and oleic acid in the presence of buffered cholesterol esterase [(EC 3.1.1.13) Sigma Company, St. Louis, Mo., U.S.A., No. C-1892, from bovine pancreas] and measuring the amount of ester formed, according to the procedure of Field, J. of Lipid Research, 25, 389 (1984).

[3] = IC25 instead of IC50; 37° C.; cholesterol + oleic acid; bovine pancreas enzyme
[4] = 37° C.; cholesterol + oleic acid; bovine pancreas enzyme; read-out: In Vitro Results IC50 CEH

Q: What does the source list for CCCCCCNC(=O)OC1CCN(C(=O)OCCCCCCNC(=O)Oc2ccc(Oc3ccccc3)cc2)CC1 [Example 6, 4-(Hexylcarbamoyloxy)-piperidine-1-carboxylic acid 6-[(4-phenoxy-phenyl)-oxycarbonylamino]-hexyl ester]?
A: Effect on Absorption of 14C-Chol, % Decrease ([1]; 3 mg/kg): 49%; IC50 ([2]; read-out: In Vitro Results IC50 CEH; 37° C.; cholesterol + oleic acid; bovine pancreas enzyme): 1100 nM

Q: Which results are given for O=C(NCCCCCCOC(=O)N1CCC(OC(=O)N2CCC3(CCCC3)CC2)CC1)Oc1ccc(Oc2ccccc2)cc1 [Example 7, 8-Aza-spiro[4.5]decane-8-carboxylic acid 1-{6-[(4-phenoxy-phenyl)-oxycarbonylamino]-hexyloxycarbonyl}-piperidin-4-yl ester]?
A: Effect on Absorption of 14C-Chol, % Decrease ([1]; 10 mg/kg): 50%; IC25 [2, 3]: 200 nM

Q: Which results are given for CCCCCCCCCCNC(=O)OC1CCN(C(=O)OCCCCCCNC(=O)Oc2ccc(Oc3ccccc3)cc2)CC1 [Example 8, 4-(Decylcarbamoyloxy)-piperidine-1-carboxylic acid 6-[(4-phenoxy-phenyl)-oxycarbonylamino]-hexyl ester]?
A: Effect on Absorption of 14C-Chol, % Decrease ([1]; 10 mg/kg): 43%; IC50 [2, 4]: 3000 nM

Q: With O=C(NCCCCCCOC(=O)N1CCC(OC(=O)NC2CCCCC2)CC1)Oc1ccc(Oc2ccccc2)cc1 [Example 9, 4-(Cyclohexylcarbamoyloxy)-piperidine-1-carboxylic acid 6-[(4-phenoxy-phenyl)-oxycarbonylamino]-hexyl ester] as the molecule, how does the “Effect on Absorption of 14C-Chol, % Decrease” value (“Effect … % Decrease” for short) ([1]; 10 mg/kg) read?
A: 46%

Q: And the IC25 [2, 3]?
A: 300 nM

Q: O=C(NCCCCCCOC(=O)N1CCC(OC(=O)NCCCCc2ccccc2)CC1)Oc1ccc(Oc2ccccc2)cc1 [Example 10, 4-(4-Phenyl-butyl-carbamoyloxy)-piperidine-1-carboxylic acid 6-[(4-phenoxy-phenyl)-oxycarbonylamino]-hexyl ester] was tested. Which “Effect … % Decrease” value ([1]; 10 mg/kg) did it give?
A: 61%

Q: And the IC25 [2, 3]?
A: 300 nM

Q: For O=C(NCCCCCCOC(=O)N1CCC(OC(=O)N2CCCCC2)CC1)Oc1ccc(Oc2ccccc2)cc1 [Example 11, 4-(Piperidine-1-carbonyloxy)-piperidine-1-carboxylic acid 6-[(4-phenoxy-phenyl)oxycarbonylamino]-hexyl ester], which “Effect … % Decrease” value ([1]; 10 mg/kg) is on record?
A: 81%

Q: What about the IC50 [2, 4] of the same molecule?
A: 5900 nM
